Experimental data reported in US20080249130A1, “Gut microsomal triglyceride transport protein inhibitors” (Sirtris Pharmaceuticals, Inc., priority 2007, published 2008).
Where “and” joins values, the source holds several entries; their conditions need not be identical. Equal values may be shown once. Read-outs that look alike come from different tables or passages of the source.

Experiments:
[1] = test system: secretion of ApoB by HepG2 cells; experiment: ApoB secretion inhibition assay in HepG2 cells (ApoB ELISA); format: cell-based, human; details: Homo sapiens
Procedure, shortened: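 HepG2 cells were serum-starved for 24 h, then treated for 24 h in DMEM with 1% BSA, 0.3 mM BSA-complexed oleic acid and 0.1% DMSO. Secreted ApoB in conditioned medium was measured by sandwich ELISA (A450). Viability was checked by AlamarBlue fluorescence.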

[2] = biological target: T1, MTP (Homo sapiens, UniProt P55157); experiment: In vitro inhibition of MTP, triacylglycerol transfer assay with donor and acceptor liposomes (fluorescence); format: biochemical
T1 sequence (P55157 19-894, species assumed): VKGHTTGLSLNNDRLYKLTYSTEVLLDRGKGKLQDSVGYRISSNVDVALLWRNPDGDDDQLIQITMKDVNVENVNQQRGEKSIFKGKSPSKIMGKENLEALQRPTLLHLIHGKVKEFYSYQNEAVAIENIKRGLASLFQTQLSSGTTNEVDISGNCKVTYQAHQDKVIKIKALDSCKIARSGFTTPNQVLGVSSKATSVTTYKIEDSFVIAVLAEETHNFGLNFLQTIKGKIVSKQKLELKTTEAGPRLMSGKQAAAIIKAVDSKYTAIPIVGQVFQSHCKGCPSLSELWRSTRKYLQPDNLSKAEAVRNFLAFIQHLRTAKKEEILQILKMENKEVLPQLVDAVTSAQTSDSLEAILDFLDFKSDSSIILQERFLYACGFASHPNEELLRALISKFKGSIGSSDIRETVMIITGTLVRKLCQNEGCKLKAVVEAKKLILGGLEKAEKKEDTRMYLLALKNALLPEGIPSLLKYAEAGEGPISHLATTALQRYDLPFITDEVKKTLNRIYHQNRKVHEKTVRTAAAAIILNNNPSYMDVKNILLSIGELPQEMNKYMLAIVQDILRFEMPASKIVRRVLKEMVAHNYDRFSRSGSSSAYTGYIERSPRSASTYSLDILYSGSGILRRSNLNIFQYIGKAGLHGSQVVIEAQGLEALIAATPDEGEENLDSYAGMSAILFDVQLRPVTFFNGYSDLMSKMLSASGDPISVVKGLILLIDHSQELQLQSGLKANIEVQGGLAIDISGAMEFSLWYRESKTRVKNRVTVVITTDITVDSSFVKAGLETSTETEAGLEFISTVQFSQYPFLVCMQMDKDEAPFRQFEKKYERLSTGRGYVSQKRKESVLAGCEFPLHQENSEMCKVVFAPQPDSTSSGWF
T1 sequence (P07237 18-508 partner, species assumed): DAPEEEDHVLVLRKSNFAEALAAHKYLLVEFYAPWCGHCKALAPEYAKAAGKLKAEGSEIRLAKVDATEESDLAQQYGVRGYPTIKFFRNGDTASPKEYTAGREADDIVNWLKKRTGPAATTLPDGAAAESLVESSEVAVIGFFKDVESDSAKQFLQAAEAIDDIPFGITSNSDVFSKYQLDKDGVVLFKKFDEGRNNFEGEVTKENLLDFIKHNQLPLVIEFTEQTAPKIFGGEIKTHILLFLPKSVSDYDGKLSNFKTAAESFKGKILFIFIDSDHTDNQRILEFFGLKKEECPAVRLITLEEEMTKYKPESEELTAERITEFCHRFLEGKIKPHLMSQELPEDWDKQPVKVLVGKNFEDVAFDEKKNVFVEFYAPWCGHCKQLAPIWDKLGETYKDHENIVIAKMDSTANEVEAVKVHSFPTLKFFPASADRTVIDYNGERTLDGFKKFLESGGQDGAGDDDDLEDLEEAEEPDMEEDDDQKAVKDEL
Experimental: This assay is commercially available (Cat. #D400, Chylos Inc., New York). Liposomes are pipetted in 5 μl aliquots into the wells of a black fluorescence microtiter plate, followed by addition of 5 μl of water and an incubation of 2-5 min to allow the samples to equilibrate to rt. Next, 5 μl of compound dissolved in DMSO is added to the vesicles. The reaction is initated by the addition of 5 μl MTP, followed by incubation for 30 min at room temperature. […] Time of incubation can be increased to measure low activity in different samples. In such situations, samples are prepared just prior to measuring fluorescence units. For this purpose, isopropanol is added to substrate vesicles about 5 min prior to fluorescence measurement as the fluorescence readings in isopropanol decrease with time.

[3] = test system: C57BL/6 male mice; experiment: Murine food intake; format: in vivo; details: mice fasted overnight, 100 mg/kg PO, out through 6 hours
Experimental: C57BL/6 male mice, 18-22 grams (Wilmington, Mass. Charles River Labs), 10 mice per group, are fasted overnight (16 hrs). Mice are dosed PO at indicated dose (10 animals vehicle and 10 animals receive 100 mg/kg of test compound) and a preweighed amount of food is given to animals. Food is weighed every hour up to 6 hrs. Blood is collected at 2 to 6 hours.

[4] = biological target: T1, MTP; details: As referenced in Wetterau et al., Science 282: 751, 1998; read-out: gMTP IC50 Triacylglycerol Transfer Assay (Example 3); cited from earlier work
[5] = HepG2, Table 6, assay of Example 2, read-out: IC50 ApoB Assay
[6] = Table 6, assay of Example 3, read-out: IC50 Enzyme Assay
[7] = HepG2, Tables 2-5, second symbol of the cell, read-out: IC50 Apo B Secretion Assay (Example 2)
[8] = Tables 2-5, first symbol of the cell, read-out: IC50 Tri-acylglycerol (TAG) Transfer Assay (Example 3)

| Compound | IC50 [1, 5] [nM] | IC50 [2, 6] | other results |
| --- | --- | --- | --- |
| Cc1csc2nc(-c3ccccc3C(=O)Nc3ccc4nc(C(=O)N[C@H](C(=O)N(C)Cc5ccc(F)cc5)c5ccccc5)sc4c3)cn12 [Compound 64, (S)—N-(2-((4-fluorobenzyl)(methyl)amino)-2-oxo-1-phenylethyl)-6-(2-(3-methylimidazo[2,1-b]thiazol-6-yl)benzamido)benzo[d]thiazole-2-carboxamide] | 6.9 | 95.8 nM | – |
| CN(Cc1ccc(F)cc1)C(=O)[C@@H](NC(=O)c1nc2ccc(NC(=O)c3ccccc3-c3nc(C(C)(C)C)cs3)cc2s1)c1ccccc1 [Compound 66, (S)-6-(2-(4-tert-butylthiazol-2-yl)benzamido)-N-(2-((4-fluorobenzyl)(methyl)amino)-2-oxo-1-phenylethyl)benzo[d]thiazole-2-carboxamide] | 4 | 4.6 nM | – |
| CC(C)(C)c1ccc(-c2ccccc2C(=O)NC23CCC(C(=O)N[C@H](C(=O)N4CCCC4)c4ccccc4)(CC2)CC3)cc1 [Compound 67, (S)-4-(4′-tert-butylbiphenyl-2-ylcarboxamido)-N-(2-oxo-1-phenyl-2-(pyrrolidin-1-yl)ethyl)bicyclo[2.2.2]octane-1-carboxamide] | 1.8 | 2.4 nM | – |
| CN(Cc1ccc(F)cc1)C(=O)[C@@H](NC(=O)C12CCC(NC(=O)c3ccccc3-c3ccc(C(C)(C)C)cc3)(CC1)CC2)c1ccccc1 [Compound 68, (S)-4-(4′-tert-butylbiphenyl-2-ylcarboxamido)-N-(2-((4-fluorobenzyl)(methyl)amino)-2-oxo-1-phenylethyl)bicyclo[2.2.2]octane-1-carboxamide] | 5.6 | 9.9 nM | – |
| CCCN(C)C(=O)[C@@H](NC(=O)C12CCC(CNC(=O)c3cccc(C)c3-c3ccc(C(C)(C)C)cc3)(CC1)CC2)c1ccccc1 [Compound 73] | 11.8 | 3.5 nM | – |
| Cc1cccc(C(=O)NCC23CCC(C(=O)N[C@H](C(=O)N(C)Cc4ccc(F)cc4)c4ccccc4)(CC2)CC3)c1-c1ccc(C(C)(C)C)cc1 [Compound 75] | 5.9 | 56.2 nM | – |
| COc1cccc(C(=O)Nc2ccc3nc(C(=O)N[C@H](C(=O)N4CCCC4)c4ccccc4)sc3c2)c1-c1ccc(C(C)(C)C)cc1 [Compound 77] | 1.2 | 3.8 nM | – |
| COc1cccc(C(=O)Nc2ccc3nc(C(=O)N[C@H](C(=O)N(C)Cc4ccc(F)cc4)c4ccccc4)sc3c2)c1-c1ccc(C(C)(C)C)cc1 [Compound 78] | 2.4 | 20.5 nM and 7.9 nM | – |
| COc1cccc(C(=O)Nc2ccc3nc(C(=O)N[C@H](C(=O)N4CCCC4)c4ccccc4)sc3c2)c1-c1ccc(C(F)(F)F)cc1 [Compound 79] | 2.7 | 3.1 nM | – |
| Cc1cccc(C(=O)Nc2nc(-c3ccc(C(=O)N[C@H](C(=O)N4CCCC4)c4ccccc4)cc3)cs2)c1-c1ccc(C(C)(C)C)cc1 [Compound 83] | 13.2 | 10.2 nM | – |
| COc1cccc(C(=O)Nc2ccc3nc(C(=O)N[C@H](C(=O)N4CCCC4)c4ccccc4)sc3c2)c1-c1ccc(C(C)C)cc1 [Compound 84] | 1.1 | 3.6 nM | – |
| Cc1cccc(C(=O)Nc2ccc3nc(C(=O)N[C@H](C(=O)N4CCCC4)c4ccccc4)sc3c2)c1-c1ccc(C(C)C)cc1 [Compound 85] | 2.3 | 5.1 nM | – |
| Cc1cccc(C(=O)Nc2ccc3nc(C(=O)N[C@H](C(=O)N(C)Cc4ccc(F)cc4)c4ccccc4)sc3c2)c1-c1ccc(C(C)C)cc1 [Compound 86] | 1.5 | 9.9 nM and 5.2 nM | – |
| CN(Cc1ccc(F)cc1)C(=O)[C@@H](NC(=O)c1ccc2nc(NC(=O)c3ccccc3C3CCNCC3)ccc2c1)c1ccccc1 [Compound C1] | – | – | drop in food intake compared to control [3]: ~50%; IC50 [1, 7]: > 1010 nM; IC50 [2, 8]: > 1010 nM |
| CN(Cc1ccc(F)cc1)C(=O)[C@@H](NC(=O)c1ccc2nc(NC(=O)c3ccccc3C3CCNC3)ccc2c1)c1ccccc1 (stereo partly drawn) [Compound C3] | – | – | IC50 [1, 7]: > 1010 nM; IC50 [2, 8]: 101 to 1000 nM |
| CN(Cc1ccc(F)cc1)C(=O)[C@@H](NC(=O)c1ccc2nc(NC(=O)c3ccccc3-c3cn4ccsc4n3)ccc2c1)c1ccccc1 [Compound C5] | – | – | IC50 [1, 7]: < 100 nM; IC50 [2, 8]: < 100 nM |
| O=C1C[C@@H](c2ccc(O)cc2)Oc2cc(O)cc(O)c21 [compound 1, Naringenin, reference compound] | – | – | IC50 ([1]; HepG2, Table 1, HepG2 cells, read-out: gMTP IC50 ApoB Secretion Assay (Example 2)): 200000 nM; inhibition at 200 µM ([1]; at 200 μM, HepG2 cells): 50%; inhibition in Triacylglycerol Transfer Assay (Example 3) ([2]; at 200 μM): >90% inhibitionat 200 μM; inhibition at 200 µM ([2]; at 200 μM, read-out: inhibition in Triacylglycerol Transfer Assay (Example 3)): > 90% |
| O=C(NC1CCN(CCCCC2(C(=O)NCC(F)(F)F)c3ccccc3-c3ccccc32)CC1)c1ccccc1-c1ccc(C(F)(F)F)cc1 [compound 2, N-(2,2,2-trifluoroethyl)-9-(4-(4-(4′-(trifluoromethyl)biphenyl-2-ylcarboxamido)piperidin-1-yl)butyl)-9H-fluorene-9-carboxamide] | – | – | IC50 [4]: 0.5 nM |
| CN(Cc1ccc(F)cc1)C(=O)[C@@H](NC(=O)C12CCC(CNC(=O)c3ccccc3-c3ccc(C(C)(C)C)cc3)(CC1)CC2)c1ccccc1 [drawing 120/drawing 118] | – | – | IC50 [1, 7]: 101 to 1000 nM; IC50 [2, 8]: < 100 nM |
| CC(C)(C)c1ccc(-c2ccccc2C(=O)Nc2ccc3nc(C(=O)N[C@H](C(=O)N4CCCC4)c4ccccc4)sc3c2)cc1 [drawing 126/drawing 123] | – | – | IC50 [1, 7]: < 100 nM; IC50 [2, 8]: < 100 nM |
